Experiments:
Uromyces phaseoli = assay: Bean rust fungus eradicant test (URO PHA); type: in vivo; settings: Uromyces phaseoli, 216 h, pinto bean, eradicant spray 2 days after inoculation, 1,000 mg/l; read-out: Percent Reduction of Disease, URO PHA
Experimental: Compositions containing Compounds Nos. 1-81 were prepared by dissolving 0.24 grams of each of the compounds in 8 ml of acetone or other suitable inert solvent. Each of the resultant solutions was treated with 3 drops of TWEEN 20 (ethoxylated ethylene sorbitan monolaurate, a non-ionic surfactant)(I.C.I.), and water was added to form an emulsion. The degree of dilution with water was dictated by the desired concentration of the compound in the composition. The greater the quantity of water added, the lower the concentration of the compound in the composition, reported in milligrams per liter (mg/l) A plurality of pots were each planted with two pinto bean plants, Phaseolus vulgaris, each, susceptible to rust disease. When the plants were 7 days old, at the primary leaf stage of growth, they were all sprayed with a suspension containing 20,000 spores of the bean rust fungus, Uromyces phaseoli, per ml. All the pots were then incubated in a controlled environmental chamber, maintained at 99% humidity and 21° C., for 24 hours to allow infection to occur. The plants were then removed from the incubator and allowed to dry. Two days after inoculation each of the infected plants was then either sprayed with one of the compositions of Example 9, at a dosage of 1,000 mg/l, or left unsprayed. The unsprayed plants acted as controls. All of the sprayed and unsprayed plants were then placed in a greenhouse at 21° C. for nine days to allow the disease to develop. […] Control of disease was determined by comparing treated plants with the untreated controls. The results, expressed as percent reduction of disease, are summarized in Table II under the heading "URO PHA".

Erysiphe polygoni = assay: Powdery mildew on pinto bean, foliar application (ERY POL); type: in vivo; settings: Erysiphe polygoni, similar procedure as barley (1,000 mg/l), read-out: Percent Reduction of Disease, ERY POL
Experimental: Compositions containing Compounds Nos. 1-81 were prepared by dissolving 0.24 grams of each of the compounds in 8 ml of acetone or other suitable inert solvent. Each of the resultant solutions was treated with 3 drops of TWEEN 20 (ethoxylated ethylene sorbitan monolaurate, a non-ionic surfactant)(I.C.I.), and water was added to form an emulsion. The degree of dilution with water was dictated by the desired concentration of the compound in the composition. The greater the quantity of water added, the lower the concentration of the compound in the composition, reported in milligrams per liter (mg/l) Ten plants of "Robust" variety barley were planted in each of a plurality of pots. Each pot was then either sprayed with one of the compositions of Example 9, at a composition concentration of 1,000 mg/l, or left unsprayed. For each pot sprayed, one pot was left unsprayed as a control. After the leaves of the sprayed pots were dried, the sprayed pots and the unsprayed control pots were placed in a greenhouse maintained at 21° C. All the pots were then inoculated with barley powdery mildew fungus, Erysiphe graminis. This inoculation was accomplished by distributing spores of the fungus over the leaves of the plants to be tested from plants which had previously been infected with the mildew disease. […] Again, percent control was computed by comparing the treatment scores with the scores of the untreated controls. The results are summarized in Table II under the heading "ERY GRA". Using a similar procedure as described above for the barley, pinto bean plants were prepared, treated and inoculated with the fungus Erysiphe polygoni. The results of this testing are summarized in Table II under the heading "ERY POL".

Pyricularia oryzae = assay: whole plant or invertebrate; type: in vivo; settings: Pyricularia oryzae, in Hordeum vulgare, foliar, 216 h, read-out: Percent Reduction of Disease, PYR ORY, barley, foliar, 1,000 mg/l
Septoria nodorum = assay: Fungal growth inhibition, treated disc on agar (SEP NOD); type: cell-based; settings: Parastagonospora nodorum, disc dipped in 500 mg/l, 29° C., read-out: Percent Growth Inhibition, SEP NOD
From the text: (§1) Filter paper discs, each 11 mm. in diameter, were dipped in each of the test solutions. The discs were allowed to air dry to drive off the acetone solvent. A number of untreated discs were used as controls.
(§2) The treated and untreated discs were then placed on agar plates and one of the following fungus species: Septoria nodorum (SEP NOD), Botrytis cinerea (BOT CIN), Fusarium oxysporum (FUS OXY), Pythium ultimum (PYT ULT), Rhizoctonia solani (RHI SOL), Colletotrichum gossypii (COL GOS), and Scierotinia minor (SCL MIN), was added to the center of each disc in the form of a culture plug with the fungus mat in contact with the paper of the test disc. Cercosporidium personatum (CER PER), was added to discs as a spore suspension (20,000 spores/ml) to the disc (two drops of spore suspension per disc), rather than a mycelial culture plug. The plates were then incubated at 29° C. in an oven.
(§3) With the exception of the discs containing Cercosporidium personatum, the discs were evaluated by first measuring the radius from the center of the fungus colony on the treated discs and on the untreated discs. Percent growth inhibition of each of the compounds tested was determined as a function of the difference between the radius of the fungus colony on the treated disc versus the radius of the fungus colony on the untreated disc.

Pythium ultimum = assay: Fungal growth inhibition, treated disc on agar (PYT ULT); type: cell-based; settings: Globisporangium ultimum, disc dipped in 500 mg/l, 29° C., read-out: Percent Growth Inhibition, PYT ULT
From the text: as §1, §2, §3

Colletotrichum gossypii = assay: Fungal growth inhibition, treated disc on agar (COL GOS); type: cell-based; settings: Colletotrichum gossypii, disc dipped in 500 mg/l, 29° C., read-out: Percent Growth Inhibition, COL GOS
From the text: as §1, §2, §3

Compound	pest or weed control at 1000 µg/mL (Uromyces phaseoli) [%]	pest or weed control at 1000 µg/mL (Erysiphe polygoni) [%]	pest or weed control at 1000 µg/mL (Pyricularia oryzae) [%]	inhibition at 500 µg/mL (Septoria nodorum) [%]	inhibition at 500 µg/mL (Pythium ultimum) [%]	inhibition at 500 µg/mL (Colletotrichum gossypii) [%]
N#CC(CCc1ccccc1)(CCc1ccccc1)c1cccnc1 [A, reference compound]	0	15	10	0	10	25
CC(C)(C)c1ccc(CC(C#N)(Cc2ccc(C(C)(C)C)cc2)c2cccnc2)cc1 [B, reference compound]	0	0	–	10	15	0
CCCC(C#N)(CCc1ccccc1)c1cccnc1 (stereo not drawn) [Compound 1]	60	95	0	0	40	100
CCCCCCCC(C#N)(CCc1ccccc1)c1cccnc1 (stereo not drawn) [Compound 2]	97	100	45	0	0	60
CCCCCC(C#N)(CCc1ccccc1)c1cccnc1 (stereo not drawn) [Compound 3]	100	100	100	86	5	97
C#CCC(C#N)(CCc1ccccc1)c1cccnc1 (stereo not drawn) [Compound 4]	0	90	50	92	100	100
C=CCC(C#N)(CCc1ccccc1)c1cccnc1 (stereo not drawn) [Compound 5]	90	90	83	50	82	97
COCC(C#N)(CCc1ccccc1)c1cccnc1 (stereo not drawn) [Compound 6]	50	100	0	0	50	95
CC(C)CC(C#N)(CCc1ccccc1)c1cccnc1 (stereo not drawn) [Compound 7]	90	100	83	5	35	89
CC(C)=CCC(C#N)(CCc1ccccc1)c1cccnc1 (stereo not drawn) [Compound 8]	80	99	0	25	35	95
C=CCC(C#N)(CCc1ccc(F)cc1)c1cccnc1 (stereo not drawn) [Compound 9, 4-fluoro-α-(2-propenyl)-α-(3-pyridinyl)benzenebutanenitrile]	100	99	70	30	35	100
CCCC(C#N)(CCc1ccc(F)cc1)c1cccnc1 (stereo not drawn) [Compound 10]	100	99	70	80	40	97
C=C(Cl)CC(C#N)(CCc1ccc(F)cc1)c1cccnc1 (stereo not drawn) [Compound 65]	50	100	–	100	100	100
Cc1ccc(CCC(C#N)(CCCF)c2cccnc2)cc1 (stereo not drawn) [Compound 81]	90	100	–	40	20	20
